Here are results for one compound from ChEMBL document CHEMBL5331073, “Discovery of novel 7,7-dimethyl-6,7-dihydro-5H-pyrrolo[3,4-d]pyrimidines as ATR inhibitors based on structure-based drug design” (Eur J Med Chem, 2023).

Holding throughout (type): functional, cell-based
In test [1] the test system is HCT-116. The experiment in a line: Antiproliferative activity against ATM-proficient human HCT-116 cells assessed as reduction in cell viability incubated for 3 days by MTT assay. The conditions noted are these: HCT-116, 72 h. For orientation: Tetrazolium assays rely on reduction of a dye to a coloured formazan, in cell work by metabolically active cells.
In test [2] the test system is MCF7. Briefly: Antiproliferative activity against human MCF7 cells assessed as reduction in cell viability incubated for 3 days by MTT assay. The conditions noted are these: MCF7, 72 h.
Test [3] concerns HCT-116. Briefly: Synergistic antiproliferative activity against ATM-proficient human HCT-116 cells assessed as reduction in cell viability incubated for 3 days in presence of oxaliplatin by MTT assay. The settings on record: HCT-116, 72 h.
Test [4] deals with SW-620. The experiment in a line: Antiproliferative activity against ATM-deficient human SW620 cells assessed as reduction in cell viability incubated for 3 days by MTT assay. The conditions noted are these: SW-620, 72 h.
In test [5] the test system is A549. The experiment in a line: Antiproliferative activity against ATM-proficient human A549 cells assessed as reduction in cell viability incubated for 3 days in presence of AZD-1390 by MTT assay. The conditions noted are these: A549, 72 h.
Test [6] has as its system A549. The experiment in a line: Antiproliferative activity against ATM-proficient human A549 cells assessed as reduction in cell viability incubated for 3 days by MTT assay. The conditions noted are these: A549, 72 h.
For test [7], the system named is HT-29. Briefly: Antiproliferative activity against ATM-proficient human HT-29 cells assessed as reduction in cell viability incubated for 3 days in presence of AZD-1390 by MTT assay. The conditions noted are these: HT-29, 72 h.
Test [8] concerns MCF7. The experiment in a line: Synergistic antiproliferative activity against human MCF7 cells assessed as reduction in cell viability incubated for 3 days in presence of olaparib by MTT assay. The conditions noted are these: MCF7, 72 h.
The subject of test [9] is HCT-116. The experiment in a line: Synergistic antiproliferative activity against ATM-proficient human HCT-116 cells assessed as reduction in cell viability incubated for 3 days in presence of cisplatin by MTT assay. The conditions noted are these: HCT-116, 72 h.
In test [10] the test system is LoVo. The experiment in a line: Antiproliferative activity against ATM-deficient human LoVo cells assessed as reduction in cell proliferation incubated for 3 days by MTT assay. The settings on record: 72 h.
Test [11] deals with OVCAR-3. Briefly: Antiproliferative activity against ATM-deficient human OVCAR-3 cells assessed as reduction in cell viability incubated for 3 days by MTT assay. The settings on record: OVCAR-3, 72 h.
The subject of test [12] is MDA-MB-231. Briefly: Synergistic antiproliferative activity against human MDA-MB-231 cells assessed as reduction in cell viability incubated for 3 days in presence of olaparib by MTT assay. The conditions noted are these: MDA-MB-231, 72 h.
Test [13] relates to HT-29. The experiment in a line: Antiproliferative activity against ATM-proficient human HT-29 cells assessed as reduction in cell proliferation incubated for 3 days by MTT assay. The settings on record: HT-29, 72 h.
Test [14] relates to HCT-116. Briefly: Antiproliferative activity against ATM-proficient human HCT-116 cells assessed as reduction in cell viability incubated for 3 days in presence of AZD-1390 by MTT assay. The conditions noted are these: HCT-116, 72 h.
For test [15], the system named is A549. The experiment in a line: Synergistic antiproliferative activity against ATM-proficient human A549 cells assessed as reduction in cell viability incubated for 3 days in presence of cisplatin by MTT assay. The settings on record: A549, 72 h.
The subject of test [16] is MDA-MB-231. The experiment in a line: Antiproliferative activity against human MDA-MB-231 cells assessed as reduction in cell viability incubated for 3 days by MTT assay. The settings on record: MDA-MB-231, 72 h.
Test [17] has as its system A549. The experiment in a line: Synergistic antiproliferative activity against ATM-proficient human A549 cells assessed as reduction in cell viability incubated for 3 days in presence of oxaliplatin by MTT assay. The conditions noted are these: A549, 72 h.

By IC50 is commonly meant the midpoint of a concentration-inhibition curve. Take `C[C@@H]1COCCN1c1cc(C2(S(C)(=O)=O)CC2)nc(-c2cccc3[nH]ccc23)n1`: the half-maximal inhibitory concentration (IC50) in test [1] is 260 nM; in test [2] it was 2310 nM; in [3] it was 92 nM; in test [4], 727 nM; in [5], 495 nM; in test [6] it was 734 nM. Moreover, the concentration for half-maximal inhibition (IC50) was found to be 72 nM in [7]; 1220 nM in test [8]; 137 nM in test [9]; 231 nM in test [10]; 563 nM in [11]; 254 nM in test [12]. The IC50 in [13] stood at 644 nM; in [14], 151 nM; in [15] it was 481 nM; in [16], 2970 nM; in test [17], 333 nM.
